Assay results from US11993574B2, “Pyrazole and imidazole compounds for inhibition of IL-17 and RORgamma” (REATA PHARMACEUTICALS, INC., priority 2018, dated 2024).

Columns and labels:
Assay type in all cases: cell-based
[1] = tested on: IL-17A; test: IL-17 release from differentiated primary human T-cells (IL-17A HTRF assay); conditions: primary human CD4+ T cells differentiated into Th17 cells, 45-hour incubation, IL-17A in supernatant; read-out: hIL17 IC50
Procedure, shortened: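 Primary human CD4+ T cells (~2×10^5/well) given compound (2–500 or 4–1000 nM, 0.1% DMSO), CD3/CD28-activated and Th17-differentiated (TGF-β, IL-6, IL-23, IL-1β) for 45 h at 37° C. Supernatant IL-17A by HTRF against standard curve, normalized to vehicle; IC50 by variable-slope regression, with parallel CyQuant viability.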

[2] = target: T1, Human RAR-related Orphan Receptor Gamma (RORγ) (Homo sapiens, UniProt P51449); test: RORγ assay (GAL4-RORγ hybrid luciferase reporter, Indigo Biosciences); conditions: inverse-agonist activity, GAL4-RORγ reporter cells, 23 hours
T1 sequence (P51449 269-508 limits assumed): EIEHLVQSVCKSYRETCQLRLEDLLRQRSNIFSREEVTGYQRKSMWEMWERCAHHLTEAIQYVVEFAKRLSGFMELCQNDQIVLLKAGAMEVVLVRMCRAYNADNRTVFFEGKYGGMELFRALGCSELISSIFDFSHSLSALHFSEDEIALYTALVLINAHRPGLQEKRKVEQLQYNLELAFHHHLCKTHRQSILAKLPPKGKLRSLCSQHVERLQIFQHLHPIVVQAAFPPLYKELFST
Procedure, shortened: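 […]engineered human reporter cell line expressing GAL4-DBD/RORγ-LBD hybrid with GAL4-UAS luciferase; constitutive activity measured as inverse agonism. Cells treated with compound (7.8-2000 nM) for 23 h at 37 °C; luminescence normalized to DMSO, IC50 by variable-slope fit, with parallel viability readout to flag non-specific inhibition.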

[3] = tested on: Nrf2 transcription factor; test: AREc32 luciferase reporter assay; conditions: Homo sapiens; AREc32 cells, 19 hours; concentration required to increase GST ARE luciferase reporter activity by 2-fold; read-out: NRF2 ARE 2-Fold (EC2×)
Procedure, shortened: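 AREc32 cells (MCF-7 with firefly luciferase under eight rat GSTA2 ARE copies) treated 19 h with compound (0.4-200 nM or 3.9-2000 nM) in triplicate. Luminescence normalized to DMSO as fold-induction, capped at 50-fold. EC2× = concentration giving 2-fold reporter increase, interpolated from variable-slope fit.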

SMILES	IC50 [1]	IC50 [2]	EC (2-fold) [3]
COc1ccc(-n2nc3c(c2-c2ccccc2)CC[C@@H]2[C@@H](C)C(=O)C(C#N)=C[C@@]32C)cc1 [T116]	191 nM	80 nM	0.483 µM
C[C@H]1C(=O)C(C#N)=C[C@@]2(C)c3nn(-c4ccc(Cl)c(Cl)c4)c(-c4ccccc4)c3CC[C@H]12 [T117]	107 nM	114 nM	0.834 µM
Cc1ccc(-n2nc3c(c2-c2ccccc2)CC[C@@H]2[C@@H](C)C(=O)C(C#N)=C[C@@]32C)cc1 [T118]	158 nM	122 nM	0.635 µM
C[C@H]1C(=O)C(C#N)=C[C@@]2(C)c3nn(-c4ccc(-c5ccccc5)cc4)c(CC4CCC4)c3CC[C@H]12 [T119]	43 nM	158 nM	1.16 µM
C[C@H]1C(=O)C(C#N)=C[C@@]2(C)c3nn(-c4ccc(-c5ccccc5)cc4)c(-c4ccncn4)c3CC[C@H]12 [T120]	54 nM	92 nM	0.908 µM
C[C@H]1C(=O)C(C#N)=C[C@@]2(C)c3nn(-c4cccc(-c5ccccc5)c4)c(-c4ccncn4)c3CC[C@H]12 [T121]	85 nM	242 nM	1.07 µM
C[C@H]1C(=O)C(C#N)=C[C@@]2(C)c3nn(-c4ccncc4)c(-c4ccc(F)cc4)c3CC[C@H]12 [T122]	246 nM	97 nM	0.441 µM
C[C@H]1C(=O)C(C#N)=C[C@@]2(C)c3nn(-c4ccc(-c5ccccc5)cc4)c(-c4ccccc4F)c3CC[C@H]12 [T123]	50 nM	139 nM	1.18 µM
C[C@H]1C(=O)C(C#N)=C[C@@]2(C)c3nn(-c4ccc(-c5ccccc5)cc4)c(-c4ccncc4)c3CC[C@H]12 [T124]	77 nM	123 nM	0.651 µM
C[C@H]1C(=O)C(C#N)=C[C@@]2(C)c3nn(-c4ccc(-c5ccccc5)cc4)c(-c4cccnc4)c3CC[C@H]12 [T125]	86 nM	137 nM	0.877 µM
C[C@H]1C(=O)C(C#N)=C[C@@]2(C)c3nn(-c4cccc(-c5ccccc5)c4)c(-c4cccc(F)c4)c3CC[C@H]12 [T126]	21 nM	253 nM	1.12 µM
C[C@H]1C(=O)C(C#N)=C[C@@]2(C)c3nc(-c4ccc(-c5ccccc5)cc4)n(-c4cccc(F)c4)c3CC[C@H]12 [T127]	62 nM	267 nM	1.12 µM
C[C@H]1C(=O)C(C#N)=C[C@@]2(C)c3nc(-c4cccc(-c5ccccc5)c4)n(-c4cccc(F)c4)c3CC[C@H]12 [T128]	117 nM	158 nM	0.818 µM
CC(C)c1ccc(-c2nc3c(n2-c2cccc(F)c2)CC[C@@H]2[C@@H](C)C(=O)C(C#N)=C[C@@]32C)cc1 [T129]	73 nM	214 nM	1.29 µM
C[C@H]1C(=O)C(C#N)=C[C@@]2(C)c3nc(C4CCOCC4)n(-c4cccc(F)c4)c3CC[C@H]12 [T130]	273 nM	345 nM	1.78 µM
CC(C)c1ncc(-c2nc3c(n2-c2cccc(F)c2)CC[C@@H]2[C@@H](C)C(=O)C(C#N)=C[C@@]32C)cn1 [T131]	138 nM	170 nM	0.767 µM
C[C@H]1C(=O)C(C#N)=C[C@@]2(C)c3nc(-c4ccc(N(C)C)cc4)n(-c4cccc(F)c4)c3CC[C@H]12 [T132]	114 nM	110 nM	1.02 µM
Cc1nc2c(n1-c1cccc(F)c1)CC[C@@H]1[C@@H](C)C(=O)C(C#N)=C[C@@]21C [T133]	247 nM	225 nM	0.767 µM
C[C@H]1C(=O)C(C#N)=C[C@@]2(C)c3nc(-c4ccccc4)n(-c4cccc(F)c4)c3CC[C@H]12 [T134]	183 nM	143 nM	0.832 µM
C[C@H]1C(=O)C(C#N)=C[C@@]2(C)c3nc(-c4ccnc5ccccc45)n(-c4cccc(F)c4)c3CC[C@H]12 [T135]	160 nM	141 nM	0.896 µM
C[C@H]1C(=O)C(C#N)=C[C@@]2(C)c3nc(-c4cccc5ncccc45)n(-c4cccc(F)c4)c3CC[C@H]12 [T136]	144 nM	189 nM	0.753 µM
C[C@H]1C(=O)C(C#N)=C[C@@]2(C)c3nc(-c4cnc5ccccc5c4)n(-c4cccc(F)c4)c3CC[C@H]12 [T137]	240 nM	93 nM	0.618 µM
CC(C)c1cccc(-c2nc3c(n2-c2cccc(F)c2)CC[C@@H]2[C@@H](C)C(=O)C(C#N)=C[C@@]32C)c1 [T138]	201 nM	284 nM	0.941 µM
C[C@H]1C(=O)C(C#N)=C[C@@]2(C)c3nc(-c4ccnc(N5CCOCC5)c4)n(-c4cccc(F)c4)c3CC[C@H]12 [T139]	128 nM	112 nM	0.66 µM
C[C@H]1C(=O)C(C#N)=C[C@@]2(C)c3nc(Cc4ccccc4)n(-c4cccc(F)c4)c3CC[C@H]12 [T140]	288 nM	113 nM	1.27 µM
C[C@H]1C(=O)C(C#N)=C[C@@]2(C)c3nc(-c4ccnc(C(F)(F)F)c4)n(-c4cccc(F)c4)c3CC[C@H]12 [T141]	194 nM	146 nM	0.892 µM
C[C@H]1C(=O)C(C#N)=C[C@@]2(C)c3nc(-c4ccc(C5CC5)nc4)n(-c4cccc(F)c4)c3CC[C@H]12 [T142]	156 nM	76 nM	0.861 µM

Now from value to molecule, other results behind:

IC50 [1]	IC50 [2]	SMILES	EC (2-fold) [3]
132 nM	95 nM	C[C@H]1C(=O)C(C#N)=C[C@@]2(C)c3nc(-c4cccc(N5CCOCC5)c4)n(-c4cccc(F)c4)c3CC[C@H]12 [T143]	0.643 µM
207 nM	173 nM	C[C@H]1C(=O)C(C#N)=C[C@@]2(C)c3nc(-c4ccnc(C5CC5)c4)n(-c4cccc(F)c4)c3CC[C@H]12 [T144]	1.12 µM
87 nM	92 nM	C[C@H]1C(=O)C(C#N)=C[C@@]2(C)c3nc(-c4cccc(Br)c4)n(-c4cccc(F)c4)c3CC[C@H]12 [T145]	0.755 µM
70 nM	106 nM	C[C@H]1C(=O)C(C#N)=C[C@@]2(C)c3nc(-c4cccc(-c5ccncc5)c4)n(-c4cccc(F)c4)c3CC[C@H]12 [T146]	0.423 µM
185 nM	108 nM	C[C@H]1C(=O)C(C#N)=C[C@@]2(C)c3nc(-c4cccc(-c5cncnc5)c4)n(-c4cccc(F)c4)c3CC[C@H]12 [T147]	0.515 µM
86 nM	149 nM	C[C@H]1C(=O)C(C#N)=C[C@@]2(C)c3nc(-c4cccc(-c5cncc(F)c5)c4)n(-c4cccc(F)c4)c3CC[C@H]12 [T148]	0.566 µM
129 nM	159 nM	C[C@H]1C(=O)C(C#N)=C[C@@]2(C)c3nc(-c4cccc(-c5cnn(C)c5)c4)n(-c4cccc(F)c4)c3CC[C@H]12 [T149]	0.687 µM
104 nM	135 nM	Cc1noc(C)c1-c1cccc(-c2nc3c(n2-c2cccc(F)c2)CC[C@@H]2[C@@H](C)C(=O)C(C#N)=C[C@@]32C)c1 [T150]	0.488 µM
154 nM	234 nM	C[C@H]1C(=O)C(C#N)=C[C@@]2(C)c3nc(-c4cccc(-c5ccnn5C)c4)n(-c4cccc(F)c4)c3CC[C@H]12 [T151]	0.749 µM
131 nM	188 nM	C[C@H]1C(=O)C(C#N)=C[C@@]2(C)c3nc(-c4ccc(-c5ccccc5)cc4)n(-c4cccnc4)c3CC[C@H]12 [T152]	1.16 µM
108 nM	334 nM	CC(C)c1ccc(-c2nc3c(n2-c2cccnc2)CC[C@@H]2[C@@H](C)C(=O)C(C#N)=C[C@@]32C)cc1 [T153]	1.25 µM
415 nM	572 nM	C[C@H]1C(=O)C(C#N)=C[C@@]2(C)c3nc(-c4ccnc5ccccc45)n(-c4cccnc4)c3CC[C@H]12 [T154]	1.97 µM
161 nM	201 nM	C[C@H]1C(=O)C(C#N)=C[C@@]2(C)c3nc(-c4cccc(-c5ccccc5)c4)n(-c4cccnc4)c3CC[C@H]12 [T155]	0.738 µM
128 nM	117 nM	CC(C)c1ccc(-c2nc3c(n2-c2cnn(C)c2)CC[C@@H]2[C@@H](C)C(=O)C(C#N)=C[C@@]32C)cc1 [T156]	1.16 µM
322 nM	103 nM	C[C@H]1C(=O)C(C#N)=C[C@@]2(C)c3nc(-c4cccc(Cl)c4)n(-c4cnn(C)c4)c3CC[C@H]12 [T157]	1.28 µM
